Measurements taken from PubChem BioAssay AID1259407 (Chemical Carcinogenesis Research Information System (CCRIS), 2018).
Calls of active or inactive are those of the source. No rule for the calls is given here.

System: CCRIS mutagenicity, Ames/micronucleus/aberration tests
Test: CCRIS mutagenicity studies

`Nc1ncn([C@@H]2O[C@H](CO)[C@@H](O)[C@H]2O)c(=O)n1` was tested, and the mutagenic call (End Point: IN VITRO CHROMOSOMAL ABERRATIONS, Test System: CHO CELLS (K1), Metabolic Activation: NONE) was “active; positive”, the mutagenic call (End Point: IN VITRO CHROMOSOMAL ABERRATIONS, Test System: CHO CELLS (XRS-5), Metabolic Activation: NONE) was “active; positive” and the mutagenic call (Test System: AMES SALMONELLA TYPHIMURIUM, Strain/Indicator: TA92, Metabolic Activation: NONE, Method: STANDARD PLATE) was “active; positive”. For the same compound, the mutagenic call (Test System: AMES SALMONELLA TYPHIMURIUM, Strain/Indicator: TA98, Metabolic Activation: NONE, Method: FLUCTUATION (MICROTITER)) was “active; positive”, the mutagenic call (Test System: AMES SALMONELLA TYPHIMURIUM, Strain/Indicator: TA100, Metabolic Activation: NONE, Method: STANDARD PLATE) was “active; positive” and the mutagenic call (Test System: AMES SALMONELLA TYPHIMURIUM, Strain/Indicator: TA102, Metabolic Activation: NONE, Method: STANDARD PLATE) was “active; positive”. For the same compound, the mutagenic call (Test System: AMES SALMONELLA TYPHIMURIUM, Strain/Indicator: TA104, Metabolic Activation: NONE, Method: STANDARD PLATE) was “active; positive”, the mutagenic call (Test System: AMES SALMONELLA TYPHIMURIUM, Strain/Indicator: TA1535, Metabolic Activation: NONE, Method: STANDARD PLATE) was “active; positive” and the mutagenic call (Test System: AMES SALMONELLA TYPHIMURIUM, Strain/Indicator: TA1535, Metabolic Activation: RAT, LIVER, S-9, AROCLOR 1254, Method: STANDARD PLATE) was “active; positive”. The mutagenic call (Test System: AMES SALMONELLA TYPHIMURIUM, Strain/Indicator: TA1537, Metabolic Activation: NONE, Method: FLUCTUATION (MICROTITER)) was “inactive; negative”, the mutagenic call (Test System: AMES SALMONELLA TYPHIMURIUM, Strain/Indicator: TA2638, Metabolic Activation: NONE, Method: STANDARD PLATE) was “active; positive” and the mutagenic call (Test System: AMES SALMONELLA TYPHIMURIUM, Strain/Indicator: TA2640, Metabolic Activation: NONE, Method: STANDARD PLATE) was “inactive; negative”. For the same compound, the mutagenic call (Test System: AMES SALMONELLA TYPHIMURIUM, Strain/Indicator: TA7001, Metabolic Activation: NONE, Method: FLUCTUATION (MICROTITER)) was “inactive; negative”, the mutagenic call (Test System: AMES SALMONELLA TYPHIMURIUM, Strain/Indicator: TA7002, Metabolic Activation: NONE, Method: FLUCTUATION (MICROTITER)) was “inactive; negative” and the mutagenic call (Test System: AMES SALMONELLA TYPHIMURIUM, Strain/Indicator: TA7003, Metabolic Activation: NONE, Method: FLUCTUATION (MICROTITER)) was “inactive; negative”. For the same compound, the mutagenic call (Test System: AMES SALMONELLA TYPHIMURIUM, Strain/Indicator: TA7004, Metabolic Activation: NONE, Method: FLUCTUATION (MICROTITER)) was “active; positive”, the mutagenic call (Test System: AMES SALMONELLA TYPHIMURIUM, Strain/Indicator: TA7005, Metabolic Activation: NONE, Method: FLUCTUATION (MICROTITER)) was “inactive; negative” and the mutagenic call (Test System: AMES SALMONELLA TYPHIMURIUM, Strain/Indicator: TA7006, Metabolic Activation: NONE, Method: FLUCTUATION (MICROTITER)) was “active; positive”. The mutagenic call (Test System: CHINESE HAMSTER OVARY, Strain/Indicator: CHO-AS52/6-THIOGUANINE, Metabolic Activation: NONE) was “active; positive”, the mutagenic call (Test System: MOUSE LYMPHOMA, Strain/Indicator: L5178Y (TK+/TK-), Metabolic Activation: RAT, LIVER, HEAT-DENATURED S-9, Method: SUSPENSION/PLATE) was “active; positive” and the mutagenic call (Test System: MOUSE LYMPHOMA, Strain/Indicator: L5178Y (TK+/TK-), Metabolic Activation: RAT, LIVER, S-9, AROCLOR 1254, Method: SUSPENSION/PLATE) was “active; positive. reevaluation of results: inconclusive”. For the same compound, the mutagenic call (Test System: MOUSE LYMPHOMA, Strain/Indicator: L5178Y (TK+/TK-), Metabolic Activation: RAT, LIVER, S-9, Method: SUSPENSION/PLATE) was “active; positive”.

In the case of `CCC(=O)C1c2cccc(O)c2C(=O)c2c(O)cccc21`, the mutagenic call (Test System: AMES SALMONELLA TYPHIMURIUM, Strain/Indicator: TA1537, Metabolic Activation: NONE, Method: STANDARD PLATE) was “active; positive”, the mutagenic call (Test System: AMES SALMONELLA TYPHIMURIUM, Strain/Indicator: TA1537, Metabolic Activation: RAT, LIVER, S-9, PHENOBARBITAL AND BETA-NAPHTHOFLAVONE, Method: STANDARD PLATE) was “active; positive” and the mutagenic call (Test System: E. COLI, Strain/Indicator: WP2, Metabolic Activation: NONE, Method: STANDARD PLATE) was “inactive; negative”. The mutagenic call (Test System: E. COLI, Strain/Indicator: WP2, Metabolic Activation: RAT, LIVER, S-9, AROCLOR 1254, Method: STANDARD PLATE) was “inactive; negative”, the mutagenic call (Test System: E. COLI, Strain/Indicator: WP2 UVRA, Metabolic Activation: NONE, Method: STANDARD PLATE) was “inactive; negative” and the mutagenic call (Test System: E. COLI, Strain/Indicator: WP2 UVRA, Metabolic Activation: RAT, LIVER, S-9, AROCLOR 1254, Method: STANDARD PLATE) was “inactive; negative”.

For `CCCCC(CC)CN` (stereo not given), the mutagenic call (Test System: AMES SALMONELLA TYPHIMURIUM, Strain/Indicator: TA97, Metabolic Activation: HAMSTER, LIVER, S-9, AROCLOR 1254 (10%), Method: PREINCUBATION) was “inactive; negative”, the mutagenic call (Test System: AMES SALMONELLA TYPHIMURIUM, Strain/Indicator: TA97, Metabolic Activation: HAMSTER, LIVER, S-9, AROCLOR 1254 (30%), Method: PREINCUBATION) was “inactive; negative” and the mutagenic call (Test System: AMES SALMONELLA TYPHIMURIUM, Strain/Indicator: TA97, Metabolic Activation: NONE, Method: PREINCUBATION) was “inactive; negative”. The mutagenic call (Test System: AMES SALMONELLA TYPHIMURIUM, Strain/Indicator: TA97, Metabolic Activation: RAT, LIVER, S-9, AROCLOR 1254 (10%), Method: PREINCUBATION) was “inactive; negative”, the mutagenic call (Test System: AMES SALMONELLA TYPHIMURIUM, Strain/Indicator: TA97, Metabolic Activation: RAT, LIVER, S-9, AROCLOR 1254 (30%), Method: PREINCUBATION) was “inactive; negative” and the mutagenic call (Test System: AMES SALMONELLA TYPHIMURIUM, Strain/Indicator: TA98, Metabolic Activation: HAMSTER, LIVER, S-9, AROCLOR 1254 (10%), Method: PREINCUBATION) was “inactive; negative”. The mutagenic call (Test System: AMES SALMONELLA TYPHIMURIUM, Strain/Indicator: TA98, Metabolic Activation: HAMSTER, LIVER, S-9, AROCLOR 1254 (30%), Method: PREINCUBATION) was “inactive; negative”, the mutagenic call (Test System: AMES SALMONELLA TYPHIMURIUM, Strain/Indicator: TA98, Metabolic Activation: NONE, Method: PREINCUBATION) was “inactive; negative” and the mutagenic call (Test System: AMES SALMONELLA TYPHIMURIUM, Strain/Indicator: TA98, Metabolic Activation: RAT, LIVER, S-9, AROCLOR 1254 (10%), Method: PREINCUBATION) was “inactive; negative”. For the same compound, the mutagenic call (Test System: AMES SALMONELLA TYPHIMURIUM, Strain/Indicator: TA98, Metabolic Activation: RAT, LIVER, S-9, AROCLOR 1254 (30%), Method: PREINCUBATION) was “inactive; negative”, the mutagenic call (Test System: AMES SALMONELLA TYPHIMURIUM, Strain/Indicator: TA100, Metabolic Activation: HAMSTER, LIVER, S-9, AROCLOR 1254 (10%), Method: PREINCUBATION) was “inactive; negative” and the mutagenic call (Test System: AMES SALMONELLA TYPHIMURIUM, Strain/Indicator: TA100, Metabolic Activation: HAMSTER, LIVER, S-9, AROCLOR 1254 (30%), Method: PREINCUBATION) was “inactive; negative”. The mutagenic call (Test System: AMES SALMONELLA TYPHIMURIUM, Strain/Indicator: TA100, Metabolic Activation: NONE, Method: PREINCUBATION) was “inactive; negative”, the mutagenic call (Test System: AMES SALMONELLA TYPHIMURIUM, Strain/Indicator: TA100, Metabolic Activation: RAT, LIVER, S-9, AROCLOR 1254 (10%), Method: PREINCUBATION) was “inactive; negative” and the mutagenic call (Test System: AMES SALMONELLA TYPHIMURIUM, Strain/Indicator: TA100, Metabolic Activation: RAT, LIVER, S-9, AROCLOR 1254 (30%), Method: PREINCUBATION) was “inactive; negative”. For the same compound, the mutagenic call (Test System: AMES SALMONELLA TYPHIMURIUM, Strain/Indicator: TA1535, Metabolic Activation: HAMSTER, LIVER, S-9, AROCLOR 1254 (10%), Method: PREINCUBATION) was “inactive; negative”, the mutagenic call (Test System: AMES SALMONELLA TYPHIMURIUM, Strain/Indicator: TA1535, Metabolic Activation: HAMSTER, LIVER, S-9, AROCLOR 1254 (30%), Method: PREINCUBATION) was “inactive; negative” and the mutagenic call (Test System: AMES SALMONELLA TYPHIMURIUM, Strain/Indicator: TA1535, Metabolic Activation: NONE, Method: PREINCUBATION) was “inactive; negative”. For the same compound, the mutagenic call (Test System: AMES SALMONELLA TYPHIMURIUM, Strain/Indicator: TA1535, Metabolic Activation: RAT, LIVER, S-9, AROCLOR 1254 (10%), Method: PREINCUBATION) was “inactive; negative” and the mutagenic call (Test System: AMES SALMONELLA TYPHIMURIUM, Strain/Indicator: TA1535, Metabolic Activation: RAT, LIVER, S-9, AROCLOR 1254 (30%), Method: PREINCUBATION) was “inactive; negative”.

In the case of `c1ccc(-c2nc3ccccc3o2)cc1`, the mutagenic call (Test System: AMES SALMONELLA TYPHIMURIUM, Strain/Indicator: TA98, Metabolic Activation: NONE, Method: STANDARD PLATE) was “inactive; negative” and the mutagenic call (Test System: AMES SALMONELLA TYPHIMURIUM, Strain/Indicator: TA98, Metabolic Activation: S-9, Method: STANDARD PLATE) was “inactive; negative”.
